Data: US7507792B2, “MDA-7 proteins and methods of use thereof” (The Trustees of Columbia University In The City of New York, priority 1993, dated 2009)
Entries after “also recorded” stand apart in the source; their conditions may differ.

Key:
Type in all cases: cell-based, human
wild-type p53 protein = assay: Immunoprecipitation of p53 in H0-1 cells; conditions: IFN-β 2000 units/ml, MEZ 10 ng/ml
Experimental: Immunoprecipitation analyses were performed as described previously (Duigou et al., 1991; Su et al., 1993; Jiang et al., 1994b). […] Cultures were starved of methionine for 1 h at 37° C. in methionine-free medium, cells were concentrated by pelleting and labeled for 1 h (p53) or 4 h (p21 and Actin) at 37° in 1 ml of the same medium with 100 μCi of [^35S] (NEN; Express ^35S). After labeling, the cells were washed twice with ice-cold phosphate-buffered saline and lysed for 1 h on ice by the addition of RIPC (20 mM Tris-base, pH 7.5, 500 mM NaCl, 0.05% Nonidet P-40, 100 μg/ml phenylmethylsulfonyl fluoride and 0.02% sodium azide). The lysate was clarified by centrifugation in an Eppendorf microfuge at 10,000×g for 10 min at 4° C. H0-1 samples containing 4×10^6 counts were incubated with 2 μg of p53 monoclonal antibody (Ab1; PAb421) (Oncogene Sciences), WAF1/CIP1 (C-19) (Santa Cruz Biotechnology) (or MDA-6 peptide-derived) rabbit polyclonal IgG or actin monoclonal antibody (Oncogene Sciences) with rocking at 4° C. for 24 h. Labeled cell lysates were also prepared from F0-1, L0-1, SH-1, WM239, FM516-SV, SW480, MeWo, human skin fibroblasts and Saos-2 cells. Samples containing 4×10^6 counts were incubated with 2 μg of the p53 monoclonal antibody Ab1 (PAb421) or Ab3 (PAb240) (Oncogene Sciences). […]

H0-1 cells = assay: Northern blotting of H0-1 RNA probed with mda cDNA clones; conditions: 24 hours
Experimental: Ten micrograms of total cellular RNA were separated on a 1% agarose gel, transferred to nylon membranes and then hybridized individually with radioactive probes prepared using appropriate inserts from the cDNA clones.
The mass excision of the library was performed using ExAssist helper phage as described above. The SOLR strain of Escherichia coli and cDNA phagemids were mixed at 37° C. for 15 min and plated onto LB plates containing ampicillin and IPTG/X-gal. White colonies were chosen at random, isolated and grown in LB medium. Plasmid minireps and restriction enzyme digestions were performed to confirm the presence of inserts. The inserts were isolated and used as robes for Northern blotting analysis (5,25). […] Radiolabeled probes were generated by random oligonucleotide priming (25). Prehybridization, hybridization, posthybridization washes, and autoradiography were performed as described (5,18,25).

HL-525 cells = assay: Cell growth (cell counts); conditions: 6 d, 3 nM TPA, 1 μM RA, 400 nM Vit D3
Experimental: Cell counts were determined by hemocytometer chamber counting. Immunofluorescence tests for reactivity with the OKM1 antibody (Ortho Pharmaceutical Corp., Raritan, N.J.) were performed as previously described (Murao et al., 1983).

SMILES	wild-type p53 protein level (wild-type p53 protein; 24 h)	wild-type p53 protein level (wild-type p53 protein; over 48, 72, 96 h)	mda-3 expression (H0-1 cells)	reduction in growth (cell numbers) (HL-525 cells)
C=C(C)[C@@]12O[C@@]3(c4ccccc4)O[C@@H]1[C@@H]1[C@@H]4O[C@]4(CO)[C@@H](O)[C@]4(O)C(=O)C(C)=C[C@H]4[C@@]1(O3)[C@H](C)[C@H]2OC(=O)/C=C/C=C/c1ccccc1 [MEZ, mezerein]	no significant change	decreases	induced; also recorded: Increased expression	
CC1=C(/C=C/C(C)=C/C=C/C(C)=C/C(=O)O)C(C)(C)CCC1 [RA, trans-retinoic acid]				35%
